Experimental data: patent publication US20240197728A1, “METHODS AND PHARMACEUTICAL COMPOSITIONS FOR TREATING REFRACTORY EPILEPSY” (INSERM (INSTITUT NATIONAL DE LA SANTÉ ET DE LA RECHERCHE …, priority 2021, published 2024)

Molecular target: T1, recombinant Flag-tagged KCC2 (Rattus norvegicus, UniProt Q63633)
T1 construct: expressed in transfected cells; host or cells: primary rat hippocampal neurons, transfected at DIV 13-14 with Transfectin
T1 sequence (Q63633 1-1116 isoform Q63633-2): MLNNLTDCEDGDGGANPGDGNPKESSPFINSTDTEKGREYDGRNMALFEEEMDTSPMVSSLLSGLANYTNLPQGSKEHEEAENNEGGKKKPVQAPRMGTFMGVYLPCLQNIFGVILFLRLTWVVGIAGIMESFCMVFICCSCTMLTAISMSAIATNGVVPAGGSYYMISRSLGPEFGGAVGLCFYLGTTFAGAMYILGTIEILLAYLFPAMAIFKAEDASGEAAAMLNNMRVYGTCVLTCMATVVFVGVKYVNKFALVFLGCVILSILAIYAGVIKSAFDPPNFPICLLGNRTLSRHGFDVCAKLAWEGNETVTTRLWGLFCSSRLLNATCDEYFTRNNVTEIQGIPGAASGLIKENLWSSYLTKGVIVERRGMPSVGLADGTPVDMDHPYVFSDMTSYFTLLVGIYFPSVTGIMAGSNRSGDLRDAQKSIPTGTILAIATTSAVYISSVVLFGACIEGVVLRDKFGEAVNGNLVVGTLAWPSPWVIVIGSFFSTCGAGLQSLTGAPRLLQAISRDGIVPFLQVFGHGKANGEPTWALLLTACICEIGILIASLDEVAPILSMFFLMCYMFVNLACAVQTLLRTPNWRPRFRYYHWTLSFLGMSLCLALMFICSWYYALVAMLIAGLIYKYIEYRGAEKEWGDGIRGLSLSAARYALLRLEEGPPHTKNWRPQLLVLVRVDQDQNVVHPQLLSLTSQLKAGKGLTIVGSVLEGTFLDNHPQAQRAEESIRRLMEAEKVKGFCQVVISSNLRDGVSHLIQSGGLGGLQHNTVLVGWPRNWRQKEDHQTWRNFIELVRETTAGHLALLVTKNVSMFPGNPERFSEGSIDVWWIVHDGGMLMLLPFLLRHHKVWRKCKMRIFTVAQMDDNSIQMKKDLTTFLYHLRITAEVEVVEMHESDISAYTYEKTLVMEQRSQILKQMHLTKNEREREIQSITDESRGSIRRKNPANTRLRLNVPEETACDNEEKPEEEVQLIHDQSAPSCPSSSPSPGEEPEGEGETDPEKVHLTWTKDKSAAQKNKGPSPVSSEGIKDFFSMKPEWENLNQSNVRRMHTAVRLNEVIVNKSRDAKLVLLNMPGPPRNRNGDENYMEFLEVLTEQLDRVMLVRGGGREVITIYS
Assay: Quantum dot-based single particle tracking of KCC2 membrane lateral diffusion
Assay type: cell-based
Conditions: vs DMSO
Description: For all experiments on hippocampal cultures, neurons were pre-incubated for 2 hours with either DMSO, PCPZ or CLP257 in a CO2 incubator set at 37° C. Drugs were added directly to the culture medium. For electrophysiology experiments, neurons were also recorded in presence of these drugs in the bath. For biochemistry experiments on rat hippocampo-cortical slices, slices were incubated with either DMSO (vehicle), CLP257, PCPZ, WNK463 or sodium orthovanadate for 2 hours in interface chambers set at 37° C. For human tissue experiments, slices were pre-incubated with either DMSO, CLP257 or PCPZ for 2 hours in interface chambers set at 37° C. and then also recorded in presence of these compounds.
For single-particle-tracking experiments, a previously described KCC2-Flag construct was used. […] All constructs were sequenced by Beckman Coulter Genomics (Hope End, Takeley, U.K). Neuronal transfections were performed at DIV 13-14 using Transfectin (BioRad), according to manufacturer's instructions (DNA:transfectin ratio 1 μg:3 μl), with 1-1.5 μg of plasmid DNA per 20 mm well. Experiments were performed 7-10 days post-transfection.
Neurons were stained as previously described. Briefly, cells were incubated for 6 min at 37° C. with a mouse anti-Flag antibody (mouse, 1:300, Sigma-Aldrich), washed and incubated for 6 min at 37° C. with a biotinylated Fab goat anti-mouse antibody (1:300; Jackson Immuno Research) in imaging medium. After washes, cells were incubated for 1 min with streptavidin-coated quantum dots (QDs) emitting at 655 nm (1 nM; Invitrogen) supplemented with PBS ([…]; Invitrogen) and 10% Casein (v/v) (Sigma).
Cells were imaged using an Olympus IX71 inverted microscope equipped with a 60× objective (NA 1.42; Olympus) and a 120 W Mercury lamp (X-Cite 120Q, Lumen Dynamics). QD real time recordings (integration time of 30 ms over 1200 consecutive frames) were acquired with an ImagEM EMCCD camera and MetaView software (Meta Imaging 7.7). Cells were imaged within 45 min following appropriate drugs pre-incubation.
QD tracking and trajectory reconstruction were performed with homemade Matlab routines, as described. For each imaged neuron, one or two dendritic subregions were quantified. Mean square displacement (MSD) over time plots were calculated as described and diffusion coefficients (D) were calculated by fitting the first four points without origin of the MSD vs. time curves with the equation: MSD(nτ)=4Dnτ+b, where b is a constant reflecting the spot localization accuracy. The explored area of each trajectory was defined as the MSD value of the trajectory at two different time intervals of at 0.42 and 0.45 s.

SMILES	change of KCC2 diffusion coefficient, extrasynaptic (100 μM CLP257, 2 h)	change of KCC2 diffusion coefficient, synaptic (100 μM CLP257, 2 h)	change of KCC2 explored area, extrasynaptic (100 μM CLP257, 2 h)	change of KCC2 explored area, synaptic (100 μM CLP257, 2 h)	change of KCC2 diffusion coefficient, extrasynaptic (10 μM PCPZ, 2 h)	change of KCC2 diffusion coefficient, synaptic (10 μM PCPZ, 2 h)	change of KCC2 explored area, extrasynaptic (10 μM PCPZ, 2 h)	change of KCC2 explored area, synaptic (10 μM PCPZ, 2 h)
O=C1N=C(N2CCCCN2)S/C1=C\c1ccc(F)cc1O [CLP257, (5Z)-5-[(4-Fluoro-2-hydroxyphenyl)methylene]-2-(tetrahydro-1-(2H)-pyridazinyl)-4(5H)-thiazolone]	−20.74±4.85%	+9.39±11.21%	−25.14±2.73%	+4.93±19.40%				
CN1CCN(CCCN2c3ccccc3Sc3ccc(Cl)cc32)CC1 [PCPZ, prochlorperazine]					−36.54±14.91%	−26.22±14.00%	−39.70±17.18%	−30.632±25.44%
